These results are taken from US20120172375A1, “COMPOUNDS AND METHODS OF PROMOTING OLIGODENDROCYTE PRECURSOR DIFFERENTIATION” (priority 2008, published 2012).

Data set [1] relates to oligodendrocyte progenitor cells. As to the kind of experiment: Cell toxicity and viability (MTT, cell death). It is filed as cell-based, mouse. The settings on record: for cell toxicity and viability: concentrations below 50 μM. The protocol: Differentiation induced by selected compounds was further validated by fluorescence microscopy in cells generated from our Plp-EGFP transgenic mouse. Increased fluorescence in treated oligodendrocyte progenitor was indicative of cell maturation and was again scored following the same scale. 13 positive compounds were identified after secondary screening (FIG. 1). These were analyzed for cell toxicity assays by MTT were yellow 3-(4,5-Dimethylthiazol-2-yl)-2,5-diphenyltetrazolium bromide, a tetrazole (MTT) is reduced to purple formazan in the mitochondria of living cells, showing a solution color change measurable by OD620-590 (Data not shown). Further oligodendrocyte progenitor maturation in response to selected compounds was assessed by induction of myelin protein expression as determined by immunocytochemistry and western blot.

The test system of data set [2] is cuprizone-fed C57B1/6J mice. The experiment in a line: Remyelination after cuprizone-mediated demyelination, Black and Gold staining for total myelin. It is filed as in vivo. As to conditions: i.p., two doses; for remyelination effect (Black and Gold stain, corpus callosum): 5-100 mg/kg. The procedure: For in vivo experiments in mice, the cuprizone-mediated demyelination model was implemented as described elsewhere, (Sun et al., 2006; Wu et al., 2008). In brief, 9 week-old C57B1/J6 mice were fed with cuprizone supplemented chow (0.3%, Harlan) during 4-6 weeks. At the end of this period, while the mice were still on cuprizone diet, the animals were injected I.P. with the indicated concentrations of small molecules dissolved in DMSO. 72 hrs later, a second dose was administered and at that point the food was changed to regular chow. 48 hr after the second dose, the animals were sacrificed perfused with 4% paraformaldehyde (PFH) and the brain tissue processed or immunohistochemistry.
Brain tissue staining with Black and Gold to detect total myelin was performed in 30 μm microtome floating sections after three washes in a saline solution (0.9% NaCl). Subsequently, the tissue sections were submerged in a 0.1% Black and Gold solution in saline preheated to 60° C. for 5 min. The tissue was incubated in that solution for 8-10 min. or until achievement of purple color was observed. After washing several times with saline, the staining was fixed with a solution of 2% sodium thiosulfate for 3 min., washed with saline three times and finally mounted and visualized.
Demyelination in mouse brain induced by the copper chelator cuprizone administered in the diet is a well established animal model to study demyelination and subsequent remyelination after cuprizone withdrawal. The effect of cuprizone is evident in several brain areas being the demyeliantion of the corpus callosum the most reliable and consistent. In this study, we analyzed the effect of compounds A, A-7 and B on remyelination of six week cuprizone-fed C57B1/6J mice. Compounds were administered i.p. at the end of the sixth week (5-100 mg/kg) while the mice were still maintained on the cuprizone diet for three more days. At that point, a second injection of compounds was performed and then the mice were returned to regular chow for two more days to allow the natural remyelination process to take place. Mice were then sacrificed and the brain tissue prepared for immunohistochemistry.

For data set [3], the system named is lysolecithin-demyelinated cerebellar explants. The experiment in a line: Myelin regeneration in lysolecithin-demyelinated cerebellar explants. The settings on record: 1 μM, 10 additional days after lysolecithin. The class given is cell-based, mouse. The protocol: Myelination-demyelination-remyelination studies in cerebella organotypic cultures were carried out. In brief, after careful dissection to keep the tissue intact, cerebella of postnatal day 4-7 wild type or Plp-EGFP mouse pups was sectioned at 400-μm thickness using a Leica VT1000S vibratome. Cerebella sections were then plated on insert plates and a few droplets of high-glucose media were added to cover the tissue during the first 6 hours to allow attachment of the slices to the insert plate surface. Media used was 50% DMEM/F12, 25% Hank's buffered salt solution (both from Gibco), 25% horse serum, 5 mg/ml glucose and a combination of streptomycin/penicillin (Gibco). When the slices were firmly attached, fresh media was added to cover the tissue and the cultures were maintained in this conditions during 4-10 days. To induce demyelination, 0.5 mg/ml lysolecithin (I′-monoacyl-L-3-glycerylphosphorylcholine, Sigma) was added to the culture media for 17 hrs. After this time, the culture media was changed and treatments were performed by adding small molecules or DMSO controls to the plates for 4-10 additional days. Demyelination-remyelination was assessed by green fluorescence (Plp-EGFP) or immunostaining for myelin-axonal proteins and visualization was performed by confocal microscopy.
Acute demyelination of cerebellum tissue explants has been previously used as a reliable methodology to study myelin formation and regeneration Taking advantage of our Pip-EGFP mouse, which allowed for the accurate tracking of oligodendrocyte cell behavior during myelination/demyelination/remyelination and the cerebellar explants methodology, we analyzed the effect of compounds A, A-7 and B or oligodendrocyte cells and myelin regeneration after demyeliantion of the cerebellar explants with lysolecithin. Cerebellum from postnatal day 7 mice pups (P7) was sectioned and maintained in culture (see methods). […]

“Also recorded” adds a separate entry of the source.

`CCS(=O)(=O)N1CCN(C(=O)COc2ccc(-c3ccccc3)cc2)CC1` [Compound A, 1-[(4-biphenylyloxy)acetyl]-4-(ethylsulfonyl)piperazine]: the “cell toxicity and viability” value in data set [1] was “did not show significant detrimental effects”. The “myelin levels relative to the non-cuprizone-fed animals (Black and Gold)” value in data set [2] (100 mg/kg) was found to be 80%. For the same compound, the “remyelination effect (Black and Gold stain, corpus callosum)” value (“remyelination effect” for short) in data set [2] is “highly significant at the lowest administered dose (5 mg/kg); also recorded: enhance remyelination”. Further, in data set [3], the “oligodendrocyte cell recovery and myelin regeneration” value was “remarkable oligodendrocyte cell recovery; also recorded: evident oligodendrocyte cell recovery and myelin regeneration”.
On to `CC(C)N1CCN(C(=O)COc2ccc(-c3ccccc3)cc2)CC1` [Compound A-7, 1-(Biphenyl-4-yloxy)acetyl-4-isopropylpiperazine], for which the “cell toxicity and viability” value in data set [1] was “did not show significant detrimental effects”. Besides, the “remyelination effect” value in data set [2] is “highly significant remyelination effect; also recorded: enhance remyelination”. For the same compound, the “oligodendrocyte cell recovery and myelin regeneration” value in data set [3] was “remarkable oligodendrocyte cell recovery; also recorded: evident oligodendrocyte cell recovery and myelin regeneration”.
Consider `O=[N+]([O-])c1ccc(F)c(NS(=O)(=O)c2ccc(F)cc2)c1` [Compound B, 4-fluoro-N-(2-fluoro-5-nitrophenyl)benzenesulfonamide], for which the “concentrations with toxic effect (induction of cell death)” value in data set [1] is more than 10 µM. The “concentrations with toxic effect (MTT cell viability)” value in data set [1] (MTT) is listed as “higher than 1 μM”. Further, the “remyelination effect” value in data set [2] is reported as “did not detect a measurable induction of myelin recovery”. In data set [3], the “oligodendrocyte cell recovery and myelin regeneration” value is “remarkable oligodendrocyte cell recovery; also recorded: evident oligodendrocyte cell recovery and myelin regeneration”.
